Measurements: patent publication US20210062160A1, “THERAPEUTIC AND IMMUNOMODULATORY BACTERIOPHAGE FORMULATIONS AND METHODS FOR MAKING AND USING THEM” (priority 2017, published 2021)

Legend:
[1] = tested on: MDCK cells; test: Inhibition of T4 phage transcytosis across MDCK monolayers by chemical inhibitors; format: cell-based, canine; conditions: for Inhibitor transcytosis Median ± s.d.: T4 phages across MDCK pretreated 18 hrs: Brefeldin A 5 μgmL^−1, Wortmannin 100 nM, Bafilomycin 0.5 μM, Chloroquine 100 μM, W-7 100 μM, solvent 7.9 ± 3 × 10^4; for effect of inhibitor on phage transcytosis: T4 phages across inhibitor-treated MDCK cells vs solvent control
Procedure: All cells were seeded at a density of 0.5-1×10^6 cells per well and allowed to grow to confluency (3-5 days). For apical-to-basal transcytosis the apical wells were incubated in Hanks Buffered Salt Solution (HBSS) at pH 6.0 and basal cells in HBSS at pH 7.4 for two hours to mimic pH-dependent uptake (2). For basal-to-apical transcytosis the buffers were switched. Bacteriophages were applied with the HBBS pH 6.0 buffer, incubated with cells for two hours and phage from both apical and basal cell layers quantified by plating with bacterial host.
Permeation of phages throughout the eukaryotic cell. The mechanism of phage access to Eukaryotic cells remains ambiguous (22, 24, 29). […] Inhibition of phage transcytosis was reported as the percentage of phages transcytosed across inhibitor-treated cells, compared to cells treated with a solvent control (FIG. 3A and Table S3).
Before this invention, the mechanism of phage transcytosis across eukaryotic cells remained ambiguous, see e.g., Duerkop et al., 2013, Resident viruses and their interactions with the immune system, Nat Immunol 14:654-9; Merril, et al., 1996, Long-circulating bacteriophage as antibacterial agents, Proc Natl Acad Sci 93:3188-3192; Aronow, et al., 1964, Electron microscopy of in vitro endocytosis of T2 phage by cells from rabbit perioneal exudate, J Exp Med 120. […] Inhibition of phage transcytosis was reported as the percentage of phages transcytosed across inhibitor-treated cells compared to cells treated with a solvent control (FIG. 13).

[2] = tested on: MDCK cells; test: Fluorescence-positive MDCK cells after treatment with labeled T4 phages; format: cell-based, canine; conditions: n=1008, mean
From the text: T4 phage were fluorescently labeled and visualized within MDCK cells (FIG. 4A-C).

Row | SMILES | Inhibitor transcytosis Median ± s.d. [1] | effect of inhibitor on phage transcytosis [1] | proportion of fluorescence-positive cells treated with BFA and labeled T4 phages [2] | phages transcytosed compared to a solvent control ([1]; T4 phages across inhibitor-treated MDCK cells)
1 | CO/C1=C\C(C)=C\[C@@H](C)[C@@H](O)[C@@H](C)C/C(C)=C/C=C/[C@H](OC)[C@@H]([C@@H](C)[C@@H](O)[C@H](C)[C@@]2(O)C[C@@H](O)[C@H](C)[C@@H](C(C)C)O2)OC1=O [Bafilomycin] | 1 ± .19 × 10^5 | no significant treatment effects |  | 
2 | C[C@H]1CCC/C=C/[C@@H]2C[C@H](O)C[C@H]2[C@H](O)/C=C/C(=O)O1 [Brefeldin A] | 2.3 ± 2.2 × 10^4 | significant but incomplete inhibition of transcytosis | 9.98% | 38.5%
3 | CCN(CC)CCCC(C)Nc1ccnc2cc(Cl)ccc12 (centres unmarked) [Chloroquine] | 5.3 ± 2.7 × 10^4 | no significant treatment effects |  | 
4 | NCCCCCCNS(=O)(=O)c1cccc2c(Cl)cccc12 [W-7] | 8.2 ± 1.1 × 10^4 | no significant treatment effects |  | 
5 | COC[C@H]1OC(=O)c2coc3c2[C@@]1(C)C1=C(C3=O)[C@@H]2CCC(=O)[C@@]2(C)C[C@H]1OC(C)=O [Wortmannin] | 8.1 ± 2.9 × 10^4 |  |  | 
